Measurements taken from patent US11173151B2, “Substituted triazole derivatives and uses thereof” (BAYER AKTIENGESELLSCHAFT, priority 2017, dated 2021).

Columns and labels:
human V1a receptor = target: T1, human V1a receptor (Homo sapiens, UniProt P37288); assay: Cellular in vitro assay for determining vasopressin receptor activity, V1a receptor cell line (CHO, aequorin luminescence); type: cell-based; conditions: for IC50: CHO cell line transfected with human V1a receptor, [Arg]-vasopressin at EC50 concentration, read-out: IC50 hV1a; for ratio IC50 hV2/hV1a: selectivity ratio IC50 hV2 / IC50 hV1a
T1 construct: expressed in transfected cells; host or cells: CHO K1 (ATCC), also stably transfected with a modified aequorin
T1 sequence (P37288 whole entry): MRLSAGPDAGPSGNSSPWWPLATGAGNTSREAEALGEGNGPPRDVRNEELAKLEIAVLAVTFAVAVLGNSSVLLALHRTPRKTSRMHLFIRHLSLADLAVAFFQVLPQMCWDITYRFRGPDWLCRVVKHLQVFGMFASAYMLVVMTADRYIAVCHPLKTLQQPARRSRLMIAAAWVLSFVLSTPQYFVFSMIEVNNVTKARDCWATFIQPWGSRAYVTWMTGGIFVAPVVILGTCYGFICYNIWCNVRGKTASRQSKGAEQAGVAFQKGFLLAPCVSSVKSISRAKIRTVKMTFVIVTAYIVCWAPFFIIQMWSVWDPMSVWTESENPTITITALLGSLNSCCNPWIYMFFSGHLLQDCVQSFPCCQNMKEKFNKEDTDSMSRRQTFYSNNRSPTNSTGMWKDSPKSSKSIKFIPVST
Outline: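 CHO K1/aequorin cells, coelenterazine 5 μg/ml o/n; cpd 10 min; [Arg]-vasopressin at EC50; luminescence read immediately; IC50.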

human V2 receptor = target: T2, human V2 receptor (Homo sapiens, UniProt P30518); assay: Cellular in vitro assay for determining vasopressin receptor activity, V2 receptor cell line (CHO, CRE-luciferase); type: cell-based; conditions: CHO cell line transfected with human V2 receptor; [Arg8]-vasopressin at EC50 concentration, 3 hours; read-out: IC50 hV2
T2 construct: expressed in transfected cells; host or cells: CHO K1 (ATCC) expressing firefly luciferase under a CRE-responsive promoter
T2 sequence (P30518 whole entry): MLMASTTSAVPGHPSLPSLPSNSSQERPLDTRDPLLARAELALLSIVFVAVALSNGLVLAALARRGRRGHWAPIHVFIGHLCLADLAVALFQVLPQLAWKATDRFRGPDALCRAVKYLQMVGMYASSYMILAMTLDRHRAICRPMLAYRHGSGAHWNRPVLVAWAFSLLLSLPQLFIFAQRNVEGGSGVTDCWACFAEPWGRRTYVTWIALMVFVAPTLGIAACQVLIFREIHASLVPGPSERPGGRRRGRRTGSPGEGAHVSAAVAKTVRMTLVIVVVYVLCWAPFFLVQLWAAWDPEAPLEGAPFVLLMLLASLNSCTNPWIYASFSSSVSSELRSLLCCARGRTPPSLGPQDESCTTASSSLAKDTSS

| IC50 (human V1a receptor) | ratio IC50 hV2/hV1a (human V1a receptor) | IC50 (human V2 receptor) | SMILES |
| --- | --- | --- | --- |
| 11.1 nM | 171.9 | 1900 nM | CN(C(=O)c1ccccc1-n1cnc(Cn2nc(-c3ccc(Cl)cc3)n(C[C@H](O)C(F)(F)F)c2=O)n1)C1CCCCC1 [Example 329, 2-[3-({3-(4-Chlorophenyl)-5-oxo-4-[(2S)-3,3,3-trifluoro-2-hydroxypropyl]-4,5-dihydro-1H-1,2,4-triazol-1-yl}methyl)-1H-1,2,4-triazol-1-yl]-N-cyclohexyl-N-methylbenzamide] |
| 9.95 nM | 135.7 | 1350 nM | CN(Cc1ccco1)C(=O)c1ccccc1-n1cnc(Cn2nc(-c3ccc(Cl)cc3)n(C[C@H](O)C(F)(F)F)c2=O)n1 [Example 330, 2-[3-({3-(4-Chlorophenyl)-5-oxo-4-[(2S)-3,3,3-trifluoro-2-hydroxypropyl]-4,5-dihydro-1H-1,2,4-triazol-1-yl}methyl)-1H-1,2,4-triazol-1-yl]-N-(furan-2-ylmethyl)-N-methylbenzamide] |
| 33 nM | 233.3 | 7700 nM | CN1CCCN(C(=O)c2ccccc2-n2cnc(Cn3nc(-c4ccc(Cl)cc4)n(C[C@H](O)C(F)(F)F)c3=O)n2)CC1 [Example 331, 5-(4-Chlorophenyl)-2-[(1-{2-[(4-methyl-1,4-diazepan-1-yl)carbonyl]phenyl}-1H-1,2,4-triazol-3-yl)methyl]-4-[(2S)-3,3,3-trifluoro-2-hydroxypropyl]-2,4-dihydro-3H-1,2,4-triazol-3-one] |
| 20.5 nM | 509.8 | 10500 nM | CN(C)[C@H]1CCN(C(=O)c2ccccc2-n2cnc(Cn3nc(-c4ccc(Cl)cc4)n(C[C@H](O)C(F)(F)F)c3=O)n2)C1 [Example 332, 5-(4-Chlorophenyl)-2-{[1-(2-{[(3S)-3-(dimethylamino)pyrrolidin-1-yl]carbonyl}phenyl)-1H-1,2,4-triazol-3-yl]methyl}-4-[(2S)-3,3,3-trifluoro-2-hydroxypropyl]-2,4-dihydro-3H-1,2,4-triazol-3-one] |
| 5.55 nM | 1612.6 | 8950 nM | CN(C)[C@@H]1CCN(C(=O)c2ccccc2-n2cnc(Cn3nc(-c4ccc(Cl)cc4)n(C[C@H](O)C(F)(F)F)c3=O)n2)C1 [Example 333, 5-(4-Chlorophenyl)-2-{[1-(2-{[(3R)-3-(dimethylamino)pyrrolidin-1-yl]carbonyl}phenyl)-1H-1,2,4-triazol-3-yl]methyl}-4-[(2S)-3,3,3-trifluoro-2-hydroxypropyl]-2,4-dihydro-3H-1,2,4-triazol-3-one] |
| 2.95 nM | 289.8 | 855 nM | O=C(c1ccccc1-n1cnc(Cn2nc(-c3ccc(Cl)cc3)n(C[C@H](O)C(F)(F)F)c2=O)n1)N1CCSC1 [Example 334, 5-(4-Chlorophenyl)-2-({1-[2-(1,3-thiazolidin-3-ylcarbonyl)phenyl]-1H-1,2,4-triazol-3-yl}methyl)-4-[(2S)-3,3,3-trifluoro-2-hydroxypropyl]-2,4-dihydro-3H-1,2,4-triazol-3-one] |
| 15.5 nM | 71.3 | 1100 nM | COC[C@H]1CCCN1C(=O)c1ccccc1-n1cnc(Cn2nc(-c3ccc(Cl)cc3)n(C[C@H](O)C(F)(F)F)c2=O)n1 [Example 335, 5-(4-Chlorophenyl)-2-{[1-(2-{[(2R)-2-(methoxymethyl)pyrrolidin-1-yl]carbonyl}phenyl)-1H-1,2,4-triazol-3-yl]methyl}-4-[(2S)-3,3,3-trifluoro-2-hydroxypropyl]-2,4-dihydro-3H-1,2,4-triazol-3-one] |
| 2.8 nM | 453.6 | 1270 nM | CC1(C)CCCN1C(=O)c1ccccc1-n1cnc(Cn2nc(-c3ccc(Cl)cc3)n(C[C@H](O)C(F)(F)F)c2=O)n1 [Example 336, 5-(4-Chlorophenyl)-2-[(1-{2-[(2,2-dimethylpyrrolidin-1-yl)carbonyl]phenyl}-1H-1,2,4-triazol-3-yl)methyl]-4-[(2S)-3,3,3-trifluoro-2-hydroxypropyl]-2,4-dihydro-3H-1,2,4-triazol-3-one] |
| 1.6 nM | 600.0 | 960 nM | O=C(c1ccccc1-n1cnc(Cn2nc(-c3ccc(Cl)cc3)n(C[C@H](O)C(F)(F)F)c2=O)n1)N1CCCCC1 [Example 338, 5-(4-Chlorophenyl)-2-({1-[2-(piperidin-1-ylcarbonyl)phenyl]-1H-1,2,4-triazol-3-yl}methyl)-4-[(2S)-3,3,3-trifluoro-2-hydroxypropyl]-2,4-dihydro-3H-1,2,4-triazol-3-one] |
| 2.75 nM | 1327.3 | 3650 nM | COC[C@@H]1CCCN1C(=O)c1ccccc1-n1cnc(Cn2nc(-c3ccc(Cl)cc3)n(C[C@H](O)C(F)(F)F)c2=O)n1 [Example 339, 5-(4-Chlorophenyl)-2-{[1-(2-{[(2S)-2-(methoxymethyl)pyrrolidin-1-yl]carbonyl}phenyl)-1H-1,2,4-triazol-3-yl]methyl}-4-[(2S)-3,3,3-trifluoro-2-hydroxypropyl]-2,4-dihydro-3H-1,2,4-triazol-3-one] |
| 8.5 nM | 45.9 | 390 nM | O=C(NC1CC1)c1ccccc1-n1cnc(Cn2nc(-c3ccc(Cl)cc3)n(C[C@H](O)C(F)(F)F)c2=O)n1 [Example 340, 2-[3-({3-(4-Chlorophenyl)-5-oxo-4-[(2S)-3,3,3-trifluoro-2-hydroxypropyl]-4,5-dihydro-1H-1,2,4-triazol-1-yl}methyl)-1H-1,2,4-triazol-1-yl]-N-cyclopropylbenzamide] |
| 1.55 nM | 132.3 | 205 nM | CC(C)CNC(=O)c1ccccc1-n1cnc(Cn2nc(-c3ccc(Cl)cc3)n(C[C@H](O)C(F)(F)F)c2=O)n1 [Example 341, 2-[3-({3-(4-Chlorophenyl)-5-oxo-4-[(2S)-3,3,3-trifluoro-2-hydroxypropyl]-4,5-dihydro-1H-1,2,4-triazol-1-yl}methyl)-1H-1,2,4-triazol-1-yl]-N-(2-methylpropyl)benzamide] |
| 6.15 nM | 59.3 | 365 nM | O=C(NC1CCCCCC1)c1ccccc1-n1cnc(Cn2nc(-c3ccc(Cl)cc3)n(C[C@H](O)C(F)(F)F)c2=O)n1 [Example 342, 2-[3-({3-(4-Chlorophenyl)-5-oxo-4-[(2S)-3,3,3-trifluoro-2-hydroxypropyl]-4,5-dihydro-1H-1,2,4-triazol-1-yl}methyl)-1H-1,2,4-triazol-1-yl]-N-cycloheptylbenzamide] |
| 0.87 nM | 118.4 | 103 nM | O=C(NC1CCCC1)c1ccccc1-n1cnc(Cn2nc(-c3ccc(Cl)cc3)n(C[C@H](O)C(F)(F)F)c2=O)n1 [Example 343, 2-[3-({3-(4-Chlorophenyl)-5-oxo-4-[(2S)-3,3,3-trifluoro-2-hydroxypropyl]-4,5-dihydro-1H-1,2,4-triazol-1-yl}methyl)-1H-1,2,4-triazol-1-yl]-N-cyclopentylbenzamide] |
| 0.93 nM | 5.0 | 4.7 nM | CC(C)(C)NC(=O)c1ccccc1-n1cnc(Cn2nc(-c3ccc(Cl)cc3)n(C[C@H](O)C(F)(F)F)c2=O)n1 [Example 344, N-Tert-butyl-2-[3-({3-(4-chlorophenyl)-5-oxo-4-[(2S)-3,3,3-trifluoro-2-hydroxypropyl]-4,5-dihydro-1H-1,2,4-triazol-1-yl}methyl)-1H-1,2,4-triazol-1-yl]benzamide] |
| 1.75 nM | 67.7 | 119 nM | CC[C@H](C)NC(=O)c1ccccc1-n1cnc(Cn2nc(-c3ccc(Cl)cc3)n(C[C@H](O)C(F)(F)F)c2=O)n1 [Example 346, N-[(2S)-Butan-2-yl]-2-[3-({3-(4-chlorophenyl)-5-oxo-4-[(2S)-3,3,3-trifluoro-2-hydroxypropyl]-4,5-dihydro-1H-1,2,4-triazol-1-yl}methyl)-1H-1,2,4-triazol-1-yl]benzamide] |
| 7.55 nM | 141.1 | 1060 nM | CC1CCN(C(=O)c2ccccc2-n2cnc(Cn3nc(-c4ccc(Cl)cc4)n(C[C@H](O)C(F)(F)F)c3=O)n2)CC1 [Example 347, 5-(4-Chlorophenyl)-2-[(1-{2-[(4-methylpiperidin-1-yl)carbonyl]phenyl}-1H-1,2,4-triazol-3-yl)methyl]-4-[(2S)-3,3,3-trifluoro-2-hydroxypropyl]-2,4-dihydro-3H-1,2,4-triazol-3-one] |
| 3.85 nM | 251.9 | 970 nM | O=C(c1ccccc1-n1cnc(Cn2nc(-c3ccc(Cl)cc3)n(C[C@H](O)C(F)(F)F)c2=O)n1)N1CCCC1 [Example 348, 5-(4-Chlorophenyl)-2-({1-[2-(pyrrolidin-1-ylcarbonyl)phenyl]-1H-1,2,4-triazol-3-yl}methyl)-4-[(2S)-3,3,3-trifluoro-2-hydroxypropyl]-2,4-dihydro-3H-1,2,4-triazol-3-one] |
| 4.7 nM | 157.4 | 740 nM | CCN(C(=O)c1ccccc1-n1cnc(Cn2nc(-c3ccc(Cl)cc3)n(C[C@H](O)C(F)(F)F)c2=O)n1)C(C)C [Example 349, 2-[3-({3-(4-Chlorophenyl)-5-oxo-4-[(2S)-3,3,3-trifluoro-2-hydroxypropyl]-4,5-dihydro-1H-1,2,4-triazol-1-yl}methyl)-1H-1,2,4-triazol-1-yl]-N-ethyl-N-(propan-2-yl)benzamide] |
| 1.8 nM | 147.2 | 265 nM | O=C(c1ccccc1-n1cnc(Cn2nc(-c3ccc(Cl)cc3)n(C[C@H](O)C(F)(F)F)c2=O)n1)N1CCCCCC1 [Example 350, 2-({1-[2-(Azepan-1-ylcarbonyl)phenyl]-1H-1,2,4-triazol-3-yl}methyl)-5-(4-chlorophenyl)-4-[(2S)-3,3,3-trifluoro-2-hydroxypropyl]-2,4-dihydro-3H-1,2,4-triazol-3-one] |
